≈ marks a conversion by molar mass, not a printed value. Entries after “also recorded” stand apart in the source; their conditions may differ. Where two headings read alike, the source gives them in different places. Square brackets hold non-standard residues; d marks the D form. Side chains are listed from the residue outwards. Peptide text beside a SMILES is read from it. * marks the point of attachment. 2Nal = N[C@@H](Cc1ccc2ccccc2c1)C(=O)O; 2Furoyl = O=C(c1ccco1)*
Columns and labels:
[1] = tested on: human cervical cancer cells HeLa; experiment: Anti-proliferative assay (MTT or resazurin), HeLa; assay type: cell-based; settings: for IC50 ± SD (µg/mL), proliferation of HeLa cells / IC50: 48 h
Method: The anti-proliferative effect of peptides was tested using various normal and cancer cells. Human cancer cells used were human cervical cancer cells HeLa (ATCC® CCL-2), and human breast cancer cells MCF-7 (ATCC® HTB22) and MDA-MB-231 (ATCC® HTB-26). Normal cells used were NIH-3T3 (ATCC® CRL-1658), human normal endothelial cells (human umbilical vein endothelial cells, HUVEC) (ECACC, Sigma-Aldrich, Lyon, France), and human lung fibroblasts IMR-90 (ATCC® CCL186). NIH-3T3, HeLa, IMR-90, MDA-MB-231, and MCF-7 cells were grown in DMEM supplemented with 10% fetal bovine serum (FBS), 1% L-glutamine, and 1% antibiotics (all from Invitrogen (Carlsbad, CA, USA)). HUVEC cells were cultured in specific medium (endothelial cell growth medium from Sigma Aldrich, Lyon, France). Cells were routinely grown on 25 cm^2 flasks. For anti-proliferative assay, cells were detached from flasks using a trypsin-EDTA solution (from Thermofisher, Illkirch-Graffenstaden, France). After counting using a Malassez chamber, cells were diluted in appropriate culture media and seeded into 96-well cell culture plates (Greiner bio-one, Paris, France) at approximately 6000 cells/well. Cells were then treated with increasing concentration of conjugates diluted in appropriate medium. Doxorubicin was used as positive control. After 48 h medium was aspirated and the number of viable cells was colorimetrically measured as previously described. Briefly, after exposure to increasing concentrations of conjugates or doxorubicin for 48 h, cell viability was measured using the standard MTT or resazurin assay. For the MTT assay, the supernatant was discarded and 50 µL of 0.5 mg/mL MTT dye was then added to each well and plates were further incubated for 4 h at 37 °C. The MTT was aspirated and 100 µL of DMSO was then added to each well. The extent of MTT reduction to formazan in cells was calculated by measuring the absorbance at 540 nm, using a spectrophotometer (Spectra Max plus, Molecular Devices, CA, USA). For the resazurin assay, the supernatant was discarded and 100 µL of resazurin solution (from Sigma Aldrich, Lyon, France) was added to each well. After 4 h of incubation at 37 °C, fluorescence associated to resazurin biotransformation by live cells was measured using spectrofluorometer (excitation 530 nm/emission 590 nm). In both cases, the antiproliferative activity was recorded as concentration causing 50% growth inhibition (IC50). Experiment was performed in triplicate (n = 3).

[2] = tested on: IMR-90 (normal human fibroblasts); experiment: cells; settings: IMR-90, 48 h, read-out: IC50 (µg/mL) IMR-90
Method: (§1) The anti-proliferative effect of peptides was tested using various normal and cancer cells. […] Normal cells used were NIH-3T3 (ATCC® CRL-1658), human normal endothelial cells (human umbilical vein endothelial cells, HUVEC) (ECACC, Sigma-Aldrich, Lyon, France), and human lung fibroblasts IMR-90 (ATCC® CCL186). NIH-3T3, HeLa, IMR-90, MDA-MB-231, and MCF-7 cells were grown in DMEM supplemented with 10% fetal bovine serum (FBS), 1% L-glutamine, and 1% antibiotics (all from Invitrogen (Carlsbad, CA, USA)). HUVEC cells were cultured in specific medium (endothelial cell growth medium from Sigma Aldrich, Lyon, France). Cells were routinely grown on 25 cm^2 flasks. For anti-proliferative assay, cells were detached from flasks using a trypsin-EDTA solution (from Thermofisher, Illkirch-Graffenstaden, France). After counting using a Malassez chamber, cells were diluted in appropriate culture media and seeded into 96-well cell culture plates (Greiner bio-one, Paris, France) at approximately 6000 cells/well. Cells were then treated with increasing concentration of conjugates diluted in appropriate medium. Doxorubicin was used as positive control. […] Briefly, after exposure to increasing concentrations of conjugates or doxorubicin for 48 h, cell viability was measured using the standard MTT or resazurin assay. For the MTT assay, the supernatant was discarded and 50 µL of 0.5 mg/mL MTT dye was then added to each well and plates were further incubated for 4 h at 37 °C. The MTT was aspirated and 100 µL of DMSO was then added to each well. The extent of MTT reduction to formazan in cells was calculated by measuring the absorbance at 540 nm, using a spectrophotometer (Spectra Max plus, Molecular Devices, CA, USA). For the resazurin assay, the supernatant was discarded and 100 µL of resazurin solution (from Sigma Aldrich, Lyon, France) was added to each well. After 4 h of incubation at 37 °C, fluorescence associated to resazurin biotransformation by live cells was measured using spectrofluorometer (excitation 530 nm/emission 590 nm). […]

[3] = tested on: human breast cancer cells MCF-7; experiment: cells; settings: MCF7, 48 h, read-out: IC50 (µg/mL) MCF-7
Method: as §1

[4] = tested on: HUVEC (human umbilical vein endothelial cells); experiment: cells; settings: 48 h, read-out: IC50 (µg/mL) HUVEC
Method: as §1

[5] = tested on: mice normal 3T3 fibroblasts cells; experiment: cells; settings: Mus musculus, Fibroblast, 48 h, read-out: IC50 (µg/mL) 3T3
Method: as §1

[6] = tested on: human breast cancer cells MDA-MB-231; experiment: Anti-proliferative assay, MDA-MB-231; assay type: cell-based
Method: Cells were routinely grown on 25 cm^2 flasks. […] Doxorubicin was used as positive control. […] Experiment was performed in triplicate (n = 3).

HeLa cells [7] = experiment: Atomic force microscopy of HeLa cells; assay type: cell-based, human; settings: 20 µg/mL, 24 h
Method: HeLa cells were grown in Dulbecco’s modified eagle medium (DMEM) supplemented with 10% fetal bovine serum. After 70–80% confluency was achieved, cells were treated with conjugate 4 at 20 µg/mL and incubated for 24 h at 37 °C in a 5% CO2 incubator. The next day, these cells were visualized using a microscope. In the untreated control, cells were healthy and attached, therefore, the cells were trypsinized to detach the cells from the wells, and then collected in a sterile Eppendorf tube. In conjugate 4 treated wells, cells were dead and detached. These dead cells were freely floating and therefore the cells were collected without using the trypsinization process in an Eppendorf tube. These cells collected in Eppendorf tubes were washed twice with sterile distilled water and then 10 µL of suspension was deposited into mica chips coated with 0.01% poly-L-lysine, to allow the cells attachment. This cell suspension was then dried at room temperature. Soon after, these mica chips were inserted inside an Agilent Technologies 5500 microscope and the chips were scanned at tapping mode with a silicon nitride cantilever. After finding cells in the chips, these cells were further scanned under a higher magnification. Atomic force microscopy (AFM) topography images were obtained, and we processed them in pseudo color images to differentiate the images according to the height. […]

[8] = tested on: HUVEC (human umbilical vein endothelial cells)
Method: as §1

HeLa cells [9] = experiment: Rhodamine 123 and propidium iodide staining assay; assay type: cell-based, human
Method: As mentioned above, HeLa cells were grown in DMEM medium and seeded 3000 cells/well into 96-well plates. A stock solution of rhodamine 123 (Sigma-Aldrich, St Louis, MO, USA) and prodidium iodide (Sigma-Aldrich, St Louis, MO, USA) at concentrations of 10 and 1 mg/mL were prepared in pure DMSO and water, respectively.
The next day, 1 mL of the fresh media with 2% FBS was made, in which rhodamine 123 and propidium iodide dyes were added to make final concentrations of 10 and 5 µg/mL, respectively. Compounds 4, 4a, and 4b at four different concentrations (10, 20, 30, and 40 µg/mL) were mixed with 1 mL of this media. Old media from the plates were aspirated from each well and 200 µL of fresh media containing compounds, rhodamine 123, and PI dye were added in their respective wells in triplicate and incubated at 37 °C in a 5% CO2 incubator. After 1 and 2 h incubation, media was aspirated from the wells and washed with PBS. These cells were visualized for rhodamine 123 and PI dye staining in a Nikon Eclipse TE2000-U fluorescence microscope at 200× magnification in FITC and TXR filters respectively. Images of cells at the same location for both dyes were captured. Rhodamine 123 and PI staining give green and red fluorescence, respectively. These two different colored images were then merged with one another using ImageJ software (NIH, Bethesda, MD, USA).

[10] = tested on: human breast cancer cells MCF-7
Method: as §1

[11] = tested on: IMR-90 (normal human fibroblasts)
Method: as §1

[12] = tested on: mice normal 3T3 fibroblasts cells
Method: as §1

[13] = HeLa cells, MTT or resazurin, triplicate
[14] = HeLa cells, MTT or resazurin, read-out: IC50 ± SD (µM), proliferation of HeLa cells

Compound: C[C@H](NC(=O)[C@@H](NC(=O)[C@H](Cc1ccc2ccccc2c1)NC(=O)c1ccco1)c1ccccc1)C(N)=O [Conjugate 10, 2-Fur^4-L-2-Nal^3-L-Phg^2-L-Ala^1-CONH2]
- IC50 ± SD (µg/mL), proliferation of HeLa cells [1, 13]: 4.70 ± 0.60 µg/mL
- IC50 [1, 14]: 9.16 ± 1.17 µM

Compound: C[C@H](NC(=O)[C@H](Cc1ccc2ccccc2c1)NC(=O)[C@H](Cc1ccc2ccccc2c1)NC(=O)c1ccco1)C(N)=O [Conjugate 5, 2-Fur^4-L-2-Nal^3-L-2-Nal^2-L-Ala^1-CONH2]
- IC50 ± SD (µg/mL), proliferation of HeLa cells [1, 13]: 2.59 ± 0.30 µg/mL
- IC50 [1, 14]: 4.49 ± 0.52 µM

Compound: COc1cccc2c1C(=O)c1c(O)c3c(c(O)c1C2=O)C[C@@](O)(C(=O)CO)C[C@@H]3O[C@H]1C[C@H](N)[C@H](O)[C@H](C)O1 [Doxorubicin]
- IC50 [2]: 0.06 ± 0.01 µg/mL (≈ 0.11 µM)
- IC50 [3]: 0.01 ± 0.005 µg/mL (≈ 0.0184 µM)
- IC50 [4]: 0.02 ± 0.005 µg/mL (≈ 0.0368 µM)
- IC50 ([1]; Homo sapiens, HeLa cells, MTT or resazurin, triplicate, read-out: IC50 ± SD (µg/mL), proliferation of HeLa cells): 3.09 ± 0.16 µg/mL
- IC50 [5]: < 1 µg/mL
- IC50 ([6]; Homo sapiens, MDA-MB-231, 48 h, mean ± SD of triplicates): 0.21 ± 0.03 µg/mL (≈ 0.386 µM)

Compound: C[C@H](NC(=O)[C@H](Cc1ccccc1)NC(=O)[C@H](Cc1ccc2ccccc2c1)NC(=O)c1ccco1)C(N)=O [Conjugate 2, 2-Fur^4-L-2-Nal^3-L-Phe^2-L-Ala^1-CONH2]
- IC50 ± SD (µg/mL), proliferation of HeLa cells [1, 13]: 4.40 ± 0.20 µg/mL
- IC50 [1, 14]: 8.35 ± 0.37 µM

Compound: C[C@H](NC(=O)c1ccco1)C(=O)N[C@@H](Cc1ccc2ccccc2c1)C(=O)N[C@@H](Cc1ccccc1)C(N)=O [Conjugate 7, 2-Fur^4-L-Ala^3-L-2-Nal^2-L-Phe^1-CONH2]
- IC50 ± SD (µg/mL), proliferation of HeLa cells [1, 13]: >100 µg/mL
- IC50 [1, 14]: > 100 µM

Compound: C[C@H](NC(=O)[C@H](Cc1ccc2ccccc2c1)NC(=O)c1ccco1)C(=O)N[C@@H](Cc1ccccc1)C(N)=O [Conjugate 4, 2-Fur^4-L-2-Nal^3-L-Ala^2-L-Phe^1-CONH2]
- effect on HeLa cell membrane seen by AFM (HeLa cells [7]): membranolytic effect; also recorded: membranolytic affect
- antiproliferative activity on HUVEC (in words) [8]: did not inhibit the proliferation
- IC50 (µg/mL) HUVEC ([8]; 48 h, mean ± SD of triplicates): >100 µg/mL
- rhodamine 123 fluorescence (mitochondrial membrane potential, MMP) (HeLa cells [9]; HeLa, 40 µg/mL, 1 or 2 h treatment): loss of mitochondrial membrane potential; also recorded: totally suppressed rhodamine fluorescence
- PI dye fluorescence (membrane permeabilization) (HeLa cells [9]; HeLa, 20, 30 and 40 µg/mL, 1 or 2 h): increased
- IC50 [1]: 0.28 ± 0.09 µM
- IC50 ± SD (µg/mL), proliferation of HeLa cells [1]: 0.15 ± 0.05 µg/mL
- antiproliferative activity on MCF-7 (in words) ([10]; MCF-7): did not inhibit the proliferation
- IC50 (µg/mL) MCF-7 ([10]; MCF-7, 48 h, mean ± SD of triplicates): >100 µg/mL
- antiproliferative activity on IMR-90 (in words) ([11]; IMR-90): did not inhibit the proliferation
- IC50 (µg/mL) IMR-90 ([11]; IMR-90, 48 h, mean ± SD of triplicates): >100 µg/mL
- antiproliferative activity on 3T3 cells (in words) ([12]; 3T3): did not inhibit the proliferation
- IC50 (µg/mL) 3T3 ([12]; 3T3, 48 h, mean ± SD of triplicates): >100 µg/mL
- antiproliferative activity on MDA-MB-231 (in words) [6]: did not inhibit the proliferation
- IC50 (µg/mL) MDA-MB-231 ([6]; MDA-MB-231, 48 h, mean ± SD of triplicates): >100 µg/mL
- antiproliferative activity on MDA-MB-231 (in words) ([6]; listed as conjugate 4): inactive; also recorded: no effect

Compound: C[C@H](NC(=O)[C@H](Cc1ccc2ccccc2c1)NC(=O)[C@H](Cc1ccccc1)NC(=O)c1ccco1)C(N)=O [Conjugate 6, 2-Fur^4-L-Phe^3-L-2-Nal^2-L-Ala^1-CONH2]
- IC50 ± SD (µg/mL), proliferation of HeLa cells [1, 13]: 10.4 ± 0.10 µg/mL
- IC50 [1, 14]: 19.74 ± 0.18 µM

Compound: C[C@H](NC(=O)[C@H](C)NC(=O)[C@H](Cc1ccc2ccccc2c1)NC(=O)c1ccco1)C(N)=O [Conjugate 3, 2-Fur^4-L-2-Nal^3-L-Ala^2-L-Ala^1-CONH2]
- IC50 ± SD (µg/mL), proliferation of HeLa cells [1, 13]: 21.1 ± 0.60 µg/mL
- IC50 [1, 14]: 46.8 ± 1.33 µM

Compound: C[C@H](NC(=O)c1ccco1)C(=O)N[C@@H](Cc1ccccc1)C(=O)N[C@@H](Cc1ccc2ccccc2c1)C(N)=O [Conjugate 8, 2-Fur^4-L-Ala^3-L-Phe^2-L-2-Nal^1-CONH2]
- IC50 ± SD (µg/mL), proliferation of HeLa cells [1, 13]: 29.1 ± 2.8 µg/mL
- IC50 [1, 14]: 55.3 ± 5.31 µM

Compound: C[C@H](NC(=O)[C@H](Cc1ccc(O)cc1)NC(=O)[C@H](Cc1ccc2ccccc2c1)NC(=O)c1ccco1)C(N)=O [Conjugate 9, 2-Fur^4-L-2-Nal^3-L-Tyr^2-L-Ala^1-CONH2]
- IC50 ± SD (µg/mL), proliferation of HeLa cells [1, 13]: 19.2 ± 3.2 µg/mL
- IC50 [1, 14]: 35.4 ± 5.89 µM

Compound: C[C@H](NC(=O)[C@H](Cc1ccc2ccccc2c1)NC(=O)c1ccco1)C(=O)N[C@@H](Cc1ccccc1)C(=O)NCCCC[C@H](NC(=O)[C@H](Cc1ccccc1)NC(=O)[C@H](C)NC(=O)[C@H](Cc1ccc2ccccc2c1)NC(=O)c1ccco1)C(N)=O [Conjugate 4b] (2Furoyl-[2Nal]AFK([Phe-Ala-2Nal-2Furoyl])-NH2)
- effect on MMP or membrane integrity of HeLa cells (rhodamine 123 / PI) (HeLa cells [9]; HeLa, data not shown): do not affect MMP or the membrane integrity
- antiproliferative activity against HeLa cells (in words) ([1]; HeLa cells): inactive
- IC50 ± SD (µg/mL), proliferation of HeLa cells [1, 13]: > 100 µg/mL
